Results reported in PMC10574351, “First-Row Transition Metal Complexes Incorporating the 2-(2′-pyridyl)quinoxaline Ligand (pqx), as Potent Inflammatory Mediators: Cytotoxic Properties and Biological Activities against the Platelet-Activating Factor (PAF) and Thrombin” (Molecules, 2023).
“Also recorded” adds a separate entry of the source. Read-outs that look alike come from different tables or passages of the source.

Columns and labels:
[1] = tested on: PAF-induced aggregation in washed rabbit platelets (WRPs); details: cited from earlier work
[2] = tested on: PAF-induced aggregation in washed rabbit platelets (WRPs); experiment: Inhibition of PAF-induced aggregation in washed rabbit platelets; type: cell-based; details: washed rabbit platelets; mean ± SD; read-out: IC50 (μM) towards PAF in WRPs
Experimental: The biological experiments of PAF-induced platelet aggregation as well as the evaluation of the inhibitory effect of its synthetic compounds were performed according to thoroughly described protocols. […] Briefly, in order to obtain the washed rabbit platelets (WRPs), platelet-rich plasma was washed on Ficoll–Paque cushions and adjusted to […] platelets/mL of Tyrode’s buffer, pH 7.2. The dilution of PAF was prepared using pyrogen-free 0.15 M NaCl containing 2.5 mg/mL of crystallized bovine serum albumin, required for dispersion of PAF. The compounds under investigation were firstly dissolved in the appropriate solvent that is: DMSO for pqx (0.010 M), H2O for CrCl3 × 3H2O (0.016 M), H2O for MnCl2 × 4H2O (0.004 M), DMSO-EtOH (4/1, v/v)) for FeCl2 × 4H2O (0.014 M), H2O for CoCl2 × 6H2O (0.010 M), H2O for NiCl2 × 6H2O (0.010 M), H2O for CuCl2 × 2H2O (0.008 M), H2O for ZnCl2 (0.013 M), DMSO for 1 (0.017 M), DMSO for 2 (0.010 M0, DMSO for 3 (0.004 M), DMSO for 4 (0.002 M), DMSO for 5 (0.003 M), DMSO-EtOH-H2O (25/1/1, v/v)) for 6 (0.006 M), DMSO for 7 (0.002 M) and aliquots of these solutions were then added in solutions (2.5 mg BSA/mL) of saline.
The experiment on the inhibitory effect of each compound of interest against the washed rabbit platelets (WRPs) aggregation was carried out as per the already described method. The platelets were from male New Zealand white rabbits (about 20), individually housed in stainless steel cages in an air-conditioned room (19 ± 1 °C, 55 ± 5% humidity on a 12/12 h artificial light/dark cycle). Blood samples were drawn from the main ear artery. Microliters of PAF in a final concentration of about 10^–10 M were added to the cuvette of the aggregometer, and the height of the platelet aggregation was monitored. The platelet aggregation induced by PAF, or thrombin was measured before (considered as 0% inhibition) and after the addition of various concentrations of the examined sample, creating a linear curve of percentage inhibition (ranging from 0 to 100%) versus different concentrations of the sample. From this curve, the concentration of the sample that inhibited 50% PAF-induced aggregation was calculated, and this value was defined as IC50 (Inhibitory concentration for 50% Inhibition). Dithiothreitol-insensitive PAF choline phosphotransferase, lyso-PAF:acetyl-CoA acetyltransferase and PAF-acetylhydrolase activity assays were performed on the homogenates of rabbit leukocytes while the activity of lipoprotein-associated phospholipase A2 was assessed on plasma as previously described. The experiments were performed in a model 400 vs. aggregometer of Chrono-Log (Havertown, PA, USA) coupled to a Chrono-Log recorder at 37 °C with constant stirring at 1200 rpm. The separation of platelets was performed with centrifugations in a 3L-R Heraeus Labofuge (Hvanau, Germany), a 400R Heraeus Labofuge and an RC-5B Sorvall (Newtown, CT, USA) refrigerated super speed centrifuge. Bovine serum albumin (BSA), PAF and analytical solvents for the biological assays were purchased from Sigma. […] The measurements were performed in duplicates for each sample concentration in three different WRP preparations, in order to ensure reproducibility. All experiments were also followed by appropriate control tests of the solvent used (saline solution of BSA, DMSO aliquots in a saline solution of BSA-2.5 mg BSA/mL saline- or just in saline), in WRPs. In the aggregometer cuvette (250 to 500 μL) the overall amount of added DMSO, contained in the solution of the sample under study, is not higher than 2–3 μL. All results were expressed as mean ± standard deviation (SD). The t-test was employed to assess differences among the IC50 values of each metal complex against either the PAF- or thrombin-induced aggregation. Differences were statistically significant when the statistical p-value was smaller than 0.05.

[3] = tested on: thrombin-induced aggregation in washed rabbit platelets (WRPs); experiment: Inhibition of thrombin-induced aggregation in washed rabbit platelets; type: cell-based; details: washed rabbit platelets, mean ± SD; for IC50: read-out: IC50 (μM) towards Thrombin in WRPs
Experimental: The biological experiments of PAF-induced platelet aggregation as well as the evaluation of the inhibitory effect of its synthetic compounds were performed according to thoroughly described protocols. The inhibitory effect of the starting materials (pqx = 2-(2′-pyridyl)quinoxaline, CrCl3 × 3H2O, MnCl2 × 4H2O, FeCl2 × 4H2O, CoCl2 × 6H2O, NiCl2 × 6H2O, CuCl2 × 2H2O, ZnCl2) and of the coordination compounds 1–7, towards PAF and thrombin related biological activities (aggregation experiments) in washed rabbit platelets (WRPs) was carried out according to previously described protocols. Briefly, in order to obtain the washed rabbit platelets (WRPs), platelet-rich plasma was washed on Ficoll–Paque cushions and adjusted to […] platelets/mL of Tyrode’s buffer, pH 7.2. The dilution of PAF was prepared using pyrogen-free 0.15 M NaCl containing 2.5 mg/mL of crystallized bovine serum albumin, required for dispersion of PAF. The compounds under investigation were firstly dissolved in the appropriate solvent that is: DMSO for pqx (0.010 M), H2O for CrCl3 × 3H2O (0.016 M), H2O for MnCl2 × 4H2O (0.004 M), DMSO-EtOH (4/1, v/v)) for FeCl2 × 4H2O (0.014 M), H2O for CoCl2 × 6H2O (0.010 M), H2O for NiCl2 × 6H2O (0.010 M), H2O for CuCl2 × 2H2O (0.008 M), H2O for ZnCl2 (0.013 M), DMSO for 1 (0.017 M), DMSO for 2 (0.010 M0, DMSO for 3 (0.004 M), DMSO for 4 (0.002 M), DMSO for 5 (0.003 M), DMSO-EtOH-H2O (25/1/1, v/v)) for 6 (0.006 M), DMSO for 7 (0.002 M) and aliquots of these solutions were then added in solutions (2.5 mg BSA/mL) of saline.
The experiment on the inhibitory effect of each compound of interest against the washed rabbit platelets (WRPs) aggregation was carried out as per the already described method. The platelets were from male New Zealand white rabbits (about 20), individually housed in stainless steel cages in an air-conditioned room (19 ± 1 °C, 55 ± 5% humidity on a 12/12 h artificial light/dark cycle). Blood samples were drawn from the main ear artery. Microliters of PAF in a final concentration of about 10^–10 M were added to the cuvette of the aggregometer, and the height of the platelet aggregation was monitored. The platelet aggregation induced by PAF, or thrombin was measured before (considered as 0% inhibition) and after the addition of various concentrations of the examined sample, creating a linear curve of percentage inhibition (ranging from 0 to 100%) versus different concentrations of the sample. From this curve, the concentration of the sample that inhibited 50% PAF-induced aggregation was calculated, and this value was defined as IC50 (Inhibitory concentration for 50% Inhibition). Dithiothreitol-insensitive PAF choline phosphotransferase, lyso-PAF:acetyl-CoA acetyltransferase and PAF-acetylhydrolase activity assays were performed on the homogenates of rabbit leukocytes while the activity of lipoprotein-associated phospholipase A2 was assessed on plasma as previously described. The experiments were performed in a model 400 vs. aggregometer of Chrono-Log (Havertown, PA, USA) coupled to a Chrono-Log recorder at 37 °C with constant stirring at 1200 rpm. The separation of platelets was performed with centrifugations in a 3L-R Heraeus Labofuge (Hvanau, Germany), a 400R Heraeus Labofuge and an RC-5B Sorvall (Newtown, CT, USA) refrigerated super speed centrifuge. Bovine serum albumin (BSA), PAF and analytical solvents for the biological assays were purchased from Sigma. Standard active thrombin was purchased from Sigma, St. Lewis, MO, USA. The measurements were performed in duplicates for each sample concentration in three different WRP preparations, in order to ensure reproducibility. All experiments were also followed by appropriate control tests of the solvent used (saline solution of BSA, DMSO aliquots in a saline solution of BSA-2.5 mg BSA/mL saline- or just in saline), in WRPs. […]

[4] = tested on: thrombin-induced aggregation in washed rabbit platelets (WRPs); details: cited from earlier work
[5] = tested on: HEK293T (human embryonic kidney cells); experiment: MTT cell viability assay, HEK293T; type: cell-based; details: 48 h exposure, mean ± SD
Experimental: (§1) In this report, cell viability tests were conducted in HEK293T and HeLa cancer cells by means of the colorimetric 3-(4,5-dimethylthiazol-2-yl)-2,5-diphenyl tetrazolium bromide (MTT) assay after exposure for 48 h. A HeLa cancer cell line was selected since it is widely used in cytotoxicity studies. For all complexes, a 10 mM stock solution in DMSO (H2O for cisplatin) was prepared and diluted appropriately to reach the final concentration reported in the Materials and Methods. The non-cancerous HEK293T cell line was used for comparison. The IC50 values of the first-row metal complexes, the pqx ligand and cisplatin, presented herein were calculated using a dose-response model, which was obtained from sigmoidal fitting of dose-response curves.
(§2) The HEK293T cell line (immortalized human embryonic kidney cells) was obtained from the Biomedical Research Foundation Academy of Athens (BRFAA), Athens, Greece and the HeLa cell line (cervical cancer cells) was obtained from the National Centre For Scientific Research Demokritos (NCSR Demokritos), Athens, Greece.
(§3) Pqx metal complexes were diluted in stock solutions of 10 mM in dimethyl sulfoxide (DMSO). A similar concentration of cisplatin dissolved in H2O was used. HEK293T and HeLa cells were cultured in Dulbecco’s modified Eagle’s medium (DMEM) with high glucose (Biosera, Nuaille, France) supplemented with 10% fetal bovine serum at 37 °C and 5% CO2. Cells were seeded in sterile tissue culture 96-well plates (SPL Life Science, Pochon, Republic of Korea) at a density of 3000 cells per well. After 24 h, the medium was removed and replaced with fresh media containing various concentrations (0.01 μΜ, 0.1 μΜ, 1 μΜ, 10 μΜ, 25 μΜ, 40 μΜ, 55 μΜ, 70 μΜ, 85 μΜ and 100 μΜ) of the compounds to be tested and was further incubated for 48 h at 37 °C. Dimethyl sulfoxide (DMSO) was used as a vehicle at ≤1%. To measure cytotoxicity, a culture medium containing the compounds (or DMSO) was removed, and 100 μL of 0.5 mg/mL MTT reagent (Applichem, Darmstadt, Germany) diluted in DMEM was added to the cells for 3 h at 37 °C. After 3 h incubation in identical conditions, MTT was removed and 200 μL of DMSO was added. Absorbance values of formazan were measured at 540 nm using a BioTek Synergy H1 microplate reader (Agilent, Santa Clara, CA, USA). All compounds were tested in triplicate. The results were statistically analyzed using the nonlinear regression by GraphPad PRISM (Version 9).

[6] = tested on: HeLa cells (cervical cancer cells); experiment: MTT cell viability assay, HeLa; type: cell-based, human; details: 48 h exposure, mean ± SD
Experimental: as §1, §2, §3

[7] = known PAF antagonists quoted for comparison, read-out: IC50 against the PAF-induced aggregation in WRPs
[8] = earlier pqx complexes, ref [17],[25], read-out: IC50 against the PAF-induced aggregation

For `C[C@@H]1C(=O)O[C@H]2C[C@@]34[C@H]5C[C@@H](C(C)(C)C)[C@]36[C@@H](OC(=O)[C@@H]6O)O[C@@]4(C(=O)O5)[C@]21O` [BN 52020], the IC50 [1, 7] is given as 3.6 µM.
`[Cl-].[Cl-].[Zn+2]` [ZnCl2, reference compound] gave an IC50 [2] of 30 ± 3 µM and an IC50 [3] of 41.4 ± 3.7 µM.
In the case of `Cc1cncc(CN2CCC(=C3c4ccc(Cl)cc4CCc4cccnc43)CC2)c1` [rupatadine], the IC50 [1, 7] is given as 0.25 µM.
In the case of cis-[Ru(bpy)2(dcbpyH2)](PF6)2, the IC50 ([4]; Ru(II) thrombin inhibitors, ref [30], read-out: IC50 against thrombin) is given as 4.5 µM.
In the case of [Ru(dcbpyH2)2 (pqx))](NO3)2, the IC50 [1, 8] is listed as 0.18 µM and the “activity against thrombin” value ([4]; known Ru(II)-pqx complex, ref [17]) is listed as “inactive”.
In the case of `CC1C(=O)OC2C(O)C34C5CC(C(C)(C)C)C36C(OC(=O)C6O)OC4(C(=O)O5)C12O` (stereo not shown) [BN 52021], the IC50 [1, 7] is listed as 9.7 µM.
For `N.N.[Cl][Pt][Cl]` [cisplatin, reference compound], the IC50 ([1]; ref [25], read-out: IC50 against PAF) is listed as 0.55 µM, the IC50 [5] is listed as 4.44 ± 1.29 µM and the IC50 [6] is listed as 12.8 ± 1.48 µM.
Work on `[Cl][Fe][Cl]` [FeCl2 × 4H2O, reference compound] yielded an IC50 [2] of 261 ± 37 µM and an IC50 [3] of 13.8 ± 1.93 µM.
In the case of `O.O.O.O.O.O.[Cl-].[Cl-].[Co+2]` [CoCl2 × 6H2O], the “IC50 (μM) towards PAF in WRPs” value ([1]; washed rabbit platelets, ref [60]) is given as “negligible effects; also recorded: no inhibition ^1” and the “IC50 (μM) towards Thrombin in WRPs” value [3] is given as “no inhibition”.
For [Rh(cod)(pqx)]Cl, the IC50 [1, 8] is given as 0.015 µM.
For mer-[Rh(pqx)Cl3(MeOH)], the IC50 [1, 8] is given as 0.125 µM.
`[Cl][Mn][Cl]` [MnCl2 × 4H2O, reference compound] showed an IC50 [2] of 302 ± 30 µM and an IC50 [3] of 466 ± 47 µM.
`[Cl][Ni][Cl]` [NiCl2 × 6H2O, reference compound] gave an IC50 [2] of 30 ± 2.7 µM and an IC50 [3] of 4.9 ± 0.44 µM.
Compound `[Cl][Cu][Cl]` [CuCl2 × 2H2O, reference compound] has an IC50 [2] of 22 ± 3 µM and an IC50 [3] of 3.23 ± 0.39 µM.
Work on `[Cl][Cr]([Cl])[Cl]` [CrCl3 × 6H2O, reference compound] yielded an IC50 [2] of 537 ± 59 µM and an IC50 [3] of 611 ± 67 µM.
